Structures are written as SMILES. In brackets after ≈: the same amount, converted by molar mass. Some results are limits rather than exact numbers.

Format in all cases: cell-based
For one assay, the system named is E. Coli JT39. Briefly: MIC by standard microtitre technique (dilution in tryptone soy broth). The note with it: Escherichia coli, substance alone. How it is done:
(§1) By a standard microtitre technique the MIC values for ampicillin alone, ampicillin and 9-N-(2-N-morpholinoethyl)aminodeoxyclavulanic acid and 9-N-(2-N-morpholinoethyl)aminodeoxyclavulanic acid alone were determined.
(§2) MIC μg/ml (dilution in tryptone soy broth)
(§3) By a standard microtitre technique the MIC values for ampicillin alone, ampicillin and 9-N-[3'-N-(2"-pyrrolidinoyl)propyl]aminodeoxyclavulanic acid and 9-N[3'-N-(2"-pyrrolidinoyl)propyl]aminodeoxyclavulanic acid alone were determined.

For assay [1], the system named is Staph. Aureus Russell. The description is as above. To be noted: Staphylococcus aureus, substance alone. The procedure: as §1, §2, §3
Another assay concerns Kleb Aergenes E70. The description is as above. The note with it: Klebsiella aerogenes, substance alone. The procedure:
as §1, §2, §3

The next assay deals with Strep. pyogenes. Kind of assay: Antibacterial activity, MIC (dilution in blood agar-heavy inoculum). The note with it: Streptococcus pyogenes. The source says: (§4) Antibacterial activity of 9-N-[3'-N-(2"-pyrrolidinonyl)propyl]aminodeoxyclavulanic acid
(§5) Dilution in blood agar-heavy inoculum

Assay [2] relates to Staph. Aureus Russell. The description is as above. To be noted: Staphylococcus aureus.
Excerpt: as §4, §5

Another assay concerns Strep. pneumoniae. Described as above. The note with it: Streptococcus pneumoniae.
Excerpt: as §4, §5

For the next assay, the system named is Staph. aureus Oxford. Described as above. The note with it: Staphylococcus aureus.
Excerpt: as §4, §5

For `CC1(C)S[C@@H]2[C@H](NC(=O)[C@H](N)c3ccccc3)C(=O)N2[C@H]1C(=O)O` [Ampicillin, reference compound], the MIC against E. Coli JT39 is > 2000 µg/mL; with Staph. Aureus Russell [1], 1000 µg/mL (≈ 2860 µM); with Kleb Aergenes E70 it was 1000 µg/mL (≈ 2860 µM).
In the case of `O=C(O)[C@H]1/C(=C/CNCCCN2CCCC2=O)O[C@@H]2CC(=O)N21` [Example 2, 9-N[3'-N-(2"-Pyrrolidinonyl)propyl]aminodeoxyclavulanic acid], the MIC in the assay with Strep. pyogenes was determined as 1.25 µg/mL (≈ 3.87 µM); against Staph. Aureus Russell [2] it was 5 µg/mL (≈ 15.5 µM); with Strep. pneumoniae it was 5 µg/mL (≈ 15.5 µM); with Staph. aureus Oxford it was 5 µg/mL (≈ 15.5 µM); against E. Coli JT39, 62 µg/mL (≈ 192 µM); in the assay with Staph. Aureus Russell [1] it was 16 µg/mL (≈ 49.5 µM). Besides, in the assay with Kleb Aergenes E70, the MIC came to 500 µg/mL (≈ 1550 µM).
Regarding `O=C(O)[C@H]1/C(=C/CNCCN2CCOCC2)O[C@@H]2CC(=O)N21` [Example 1, 9-N-(2'-N-Morpholinoethyl)aminodeoxyclavulanic acid], the MIC was found to be 62 µg/mL (≈ 199 µM) against E. Coli JT39, 16 µg/mL (≈ 51.4 µM) against Staph. Aureus Russell [1] and 500 µg/mL (≈ 1610 µM) against Kleb Aergenes E70.

The values are drawn from US4343807A, “Derivatives of clavulanic acid, a process for their preparation and their use” (Beecham Group Limited, priority 1979, dated 1982).
